Test results published in patent US7268161B2, “Comprehensive pharmacologic therapy for treatment of obesity including cysteine” (priority 1999, dated 2007).

How the values were obtained:
[1] = system: tachyphylaxis; test: Cysteine therapy in patients with tachyphylaxis from drugs that increase synaptic norepinephrine; format: in vivo; conditions: patients on drugs which cause increased levels of norepinephrine in the synapse
Text: The core of Tyrosine Hydroxylase is a “heme-thiolate” protein (see FIG. 1). The “heme-thiolate” protein is composed of iron in the form of a cytochrome P-450 complex and Cysteine. Patients experiencing tachyphylaxis from drugs which cause increased levels of norepinephrine in the synapse, generally have serum iron levels which are normal.

[2] = system: norepinephrine; conditions: drugs used in treatment of a patient for weight loss; cited from earlier work

| SMILES | reversal of tachyphylaxis [1] | increase of intersynaptic levels of norepinephrine [2] |
| --- | --- | --- |
| N[C@@H](CS)C(=O)O [Cysteine] | effective in reversing the tachyphylaxis | – |
| CC(C)(N)Cc1ccccc1 [Phentermine] | – | ≥ 2,500 times |
